“And” between values parts separate entries of the source, which are not always exact repeats. Equal entries are not always repeated. Where only a bound is given, the exact number is not on record here.

One experiment has as its target T1, MCL-1 (Homo sapiens, UniProt Q07820).
T1 construct: 172-327 was expressed; His-SUMO (N, cleaved yes); made in house
As to the kind of experiment: Isothermal calorimetry (ITC) of peptide binding to MCL-1. To be noted: 50 mM Tris, 150 mM NaCl, pH 7.5, 150 μM peptide; for Kd: 25°C, one-binding site model. The method, then:
Peptide variants were prepared as N-terminal acetamides and C-terminal amides (see ESI ^†). […] Lastly, structural effects of these variations were investigated using circular dichroism (CD) spectroscopy (Fig. S4, ESI ^†).
(b) ITC data (50 mM Tris, 150 mM NaCl, pH 7.5, 150 μM peptide). […]
ITC experiments were carried out using a Microcal ITC200i instrument (Malvern) at 25°C in […]
[…] The protein of interest was dialysed against the buffer prior to experiment, and lyophilized peptides were dissolved in the same buffer. Protein was present in the cell and titrated with peptide solutions loaded into the syringe using 20 x 2 uL injections with 120 s spacing between the injections. Heats of peptide dilution were subtracted from each measurement raw data. Data was analysed using Microcal Origin 8 and
In general terms: Isothermal titration calorimetry measures the heat released or taken up as one component is titrated into another.

For another experiment, the target named is T2, hSUMO-1 18-97 (Homo sapiens, UniProt P63165).
T2 construct: 18-97; His-TEV (N, cleaved yes); made in house
T2 sequence (P63165 18-97): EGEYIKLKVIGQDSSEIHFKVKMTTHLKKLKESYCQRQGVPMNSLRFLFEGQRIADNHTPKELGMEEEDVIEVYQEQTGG
As to the kind of experiment: Fluorescence anisotropy competition assay, FITC-peg-SIM tracer / SUMO. The experiment is classed as binding. To be noted: for inhibitory potency in competition FA: competition FA vs SIM tracer/SUMO, relative to SIM2705–2717; for IC50: competition FA, 50 mM Tris, 150 mM NaCl, 25 nM tracer, 100 nM SUMO, read after 45 min, triplicate. How it is done: hSUMO-1 18-97 was expressed and purified as previously described from a pet19b His-TEV-SUMO-1 (18-97) construct with cleavage of the tag using TEV protease.4 […]
(§1) Fluorescence anisotropy assays were performed in 384-well plates (Greiner Bio-one). Each experiment was run in triplicate and the fluorescence anisotropy measured using a Perkin Elmer EnVisionTM 2103 MultiLabel plate reader, with excitation at 480 nm (30 nm bandwidth), polarised dichroic mirror at 505 nm and emission at 535 nm (40 nm bandwidth, S and P polarised). All assays were performed in 20 mM Tris, 100 mM NaCl, 0.1 mM DTT, pH 7.5 unless otherwise stated and data analysed following previously published methods.
(§2) Fluorescence anisotropy data was processed as described previously.[2] Briefly. the data from both the P (perpendicular intensity) and S (parallel intensity) channels, resulting from this measurement and corrected by subtracting the corresponding control wells, were used to calculate the intensity and anisotropy for each well following Equations 1 and 2: […]
(§3) For direct titration the average anisotropy (across three experimental replicates) and the standard deviation of these values were then calculated and fit to a logistic model using OriginPro 9.0 to determine the maximum and minimum anisotropies then the fraction bound calculated (Equation 3) and used to determine Kd (equation 4)
(§4) Lb= (r‒rmin)/λ(rmax‒r)+r‒rmin Equation 3
(§5) y= {(k+ x+[ FL])‒√{k+x+[FL] 2‒4x[FL]}}/2 Equation 4 r = anisotropy, I = total intensity, P = perpendicular intensity, S = parallel intensity, G = instrument factor which was set to 1 for all experiments, Lb = fraction ligand bound, λ = […]
(§6) For competition experiments, the anisotropies were determined as for the direct titration and then plotted against inhibitor concentration and fit (equation 5) to determine the IC50 and error […]
(§7) y = rmax + (rmin-rmax)/(1+(x/xo)p) Equation 5
(§8) Where xo represents the IC50 […]
(§9) Competition binding assays:
(§10) FA competition assays were performed in 384 well plates with the concentration of variant […]
(§11) with fixed protein and tracer concentrations. FITC-labelled peptide was added to each well to […]
(§12) For control wells, the tracer peptide was replaced with an identical volume of assay buffer.
(§13) The total volume in each well was 60 μL. […]
(In general: Fluorescence polarisation rises when a labelled molecule tumbles more slowly, as on binding a larger partner.)

A further experiment addresses T3, hMCL-1 172-327 (Homo sapiens, UniProt Q07820).
T3 construct: 172-327 was expressed; His-SUMO (N, cleaved yes); made in house
As to the kind of experiment: Fluorescence anisotropy competition assay, FITC-Ahx-BIM75–85 tracer / MCL-1. The settings on record: for inhibitory activity in competition FA: competition FA vs FITC-Ahx-BIM75–85/MCL-1, relative to NOXA75–93. The experiment is classed as binding. The method, then: as §1, §2, §3, §4, §5, §6, §7, §8, §9, §10, §11, §12, §13

T1 sequence (Q07820 172-327): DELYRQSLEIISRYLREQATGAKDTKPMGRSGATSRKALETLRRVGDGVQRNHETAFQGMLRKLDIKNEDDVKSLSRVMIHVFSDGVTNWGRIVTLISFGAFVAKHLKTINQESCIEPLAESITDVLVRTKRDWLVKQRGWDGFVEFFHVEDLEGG
T3 sequence (Q07820 172-327): as above

Regarding `CC[C@H](C)[C@H](NC(=O)[C@H](CCCNC(=N)N)NC(=O)[C@H](CCCNC(=N)N)NC(=O)[C@H](CC(C)C)NC(=O)[C@H](CCC(N)=O)NC(=O)[C@H](C)NC(=O)[C@H](C)NC(C)=O)C(=O)NCC(=O)N[C@@H](CC(=O)O)C(=O)N[C@@H](CCCCN)C(=O)N[C@H](C(=O)N[C@@H](CC(N)=O)C(=O)N[C@@H](CC(C)C)C(=O)N[C@@H](CCCNC(=N)N)C(=O)N[C@@H](CCC(N)=O)C(=O)N[C@@H](CCCCN)C(=O)N[C@@H](CC(C)C)C(=O)N[C@@H](CC(C)C)C(=O)N[C@@H](CC(N)=O)C(N)=O)C(C)C` [NOXA75–93], on MCL-1, the ΔG was -8.71 kJ/mol and the ΔH is -19.2 ± 1.5 kJ/mol.

With `CC[C@H](C)[C@H](NC(=O)[C@H](CCC(=O)O)NC(=O)[C@H](CC(N)=O)NC(=O)[C@H](CC(=O)O)NC(C)=O)C(=O)N[C@@H](CCC(=O)O)C(=O)N[C@H](C(=O)N[C@@H](CCC(=O)O)C(=O)N[C@H](C(=O)N[C@H](C(=O)N[C@@H](Cc1c[nH]c2ccccc12)C(=O)N[C@@H](CCC(=O)O)C(=O)N[C@@H](CCCCN)C(=O)N[C@@H](CCCCN)C(N)=O)C(C)C)[C@@H](C)CC)C(C)C` [SIM2705–2717I2711E], on hSUMO-1 18-97, the “inhibitory potency in competition FA” value is on record as “lost inhibitory potency” and the IC50 was greater than 200 µM.

Turning to “Ac-AAQWRRIGDKVNLRQKLLN-NH2 [NOXA75–93L78W]”, at hMCL-1 172-327, the IC50 was found to be 2200 ± 100 nM and the “inhibitory activity in competition FA” value is given as “tolerated”. Besides, on MCL-1, the ΔG is -7.66 kJ/mol, the ΔH is -13.1 ± 3.9 kJ/mol, the “−TΔS” value is 5.48 kJ/mol and the Kd stood at 2400 ± 800 nM.

Consider `CC[C@H](C)[C@H](NC(=O)[C@H](CCC(=O)O)NC(=O)[C@H](CC(N)=O)NC(=O)[C@H](CC(=O)O)NC(C)=O)C(=O)N[C@@H](CCC(=O)O)C(=O)N[C@H](C(=O)N[C@H](C(=O)N[C@H](C(=O)N[C@@H](CCC(=O)O)C(=O)N[C@@H](Cc1c[nH]c2ccccc12)C(=O)N[C@@H](CCC(=O)O)C(=O)N[C@@H](CCCCN)C(=O)N[C@@H](CCCCN)C(N)=O)[C@@H](C)CC)[C@@H](C)CC)C(C)C` [SIM2705–2717V2713E], for which, at hSUMO-1 18-97, the “inhibitory potency in competition FA” value was “lost inhibitory potency” and the IC50 is greater than 200 µM.

Turning to `CC[C@H](C)[C@H](NC(=O)[C@H](CCC(=O)O)NC(=O)[C@H](CC(N)=O)NC(=O)[C@H](CC(=O)O)NC(C)=O)C(=O)N[C@@H](CCC(=O)O)C(=O)N[C@H](C(=O)N[C@H](C(=O)N[C@H](C(=O)N[C@H](C(=O)N[C@@H](Cc1c[nH]c2ccccc12)C(=O)N[C@@H](CCC(=O)O)C(=O)N[C@@H](CCCCN)C(=O)N[C@@H](CCCCN)C(N)=O)C(C)C)[C@@H](C)CC)[C@@H](C)CC)[C@@H](C)CC` [SIM2705–2717V2710I], the IC50 at hSUMO-1 18-97 is 16.2 µM and 16.1 µM.

For the compound “Ac-AAQLRRIGDKFNLRQKLLN-NH2 [NOXA75–93V85F]”, on hMCL-1 172-327, the IC50 is greater than 20000 nM and the “inhibitory activity in competition FA” value is listed as “weaker inhibitory activity”. For the same compound, at MCL-1, the ΔG is -8.35 kJ/mol, the ΔH is -15.3 ± 3.4 kJ/mol, the “−TΔS” value amounted to 6.90 kJ/mol and binding was put at a Kd of 800 ± 100 nM.

The IC50 is the concentration needed to halve the response being measured. A high value points to a need for much substance. As a reminder, the Kd is the equilibrium constant for the complex coming apart. A higher Kd goes with weaker binding.

The record behind these values is paper PMC8495968, “Towards optimizing peptide-based inhibitors of protein–protein interactions: predictive saturation variation scanning (PreSaVS)” (RSC Chemical Biology, 2021).
